The IC50 is the point on the concentration scale where inhibition reaches its midpoint. Low readings indicate greater potency, high ones weaker potency. What is called Papp is a coefficient for how fast a substance crosses the barrier.

The source of these data is ChEMBL document CHEMBL1138941, “BACE-1 inhibition by a series of psi[CH2NH] reduced amide isosteres” (Bioorg Med Chem Lett, 2006).

Bounds are passed on as bounds.

The target of data set [1] is T1, Beta-secretase 1 (Homo sapiens, UniProt P56817). Description: Inhibition of soluble APPbeta N-terminal fragment production in HEK293T cells. In kind it is functional, cell-based, HEK-293T.
T1 sequence (P56817 whole entry, the tested form may be a part): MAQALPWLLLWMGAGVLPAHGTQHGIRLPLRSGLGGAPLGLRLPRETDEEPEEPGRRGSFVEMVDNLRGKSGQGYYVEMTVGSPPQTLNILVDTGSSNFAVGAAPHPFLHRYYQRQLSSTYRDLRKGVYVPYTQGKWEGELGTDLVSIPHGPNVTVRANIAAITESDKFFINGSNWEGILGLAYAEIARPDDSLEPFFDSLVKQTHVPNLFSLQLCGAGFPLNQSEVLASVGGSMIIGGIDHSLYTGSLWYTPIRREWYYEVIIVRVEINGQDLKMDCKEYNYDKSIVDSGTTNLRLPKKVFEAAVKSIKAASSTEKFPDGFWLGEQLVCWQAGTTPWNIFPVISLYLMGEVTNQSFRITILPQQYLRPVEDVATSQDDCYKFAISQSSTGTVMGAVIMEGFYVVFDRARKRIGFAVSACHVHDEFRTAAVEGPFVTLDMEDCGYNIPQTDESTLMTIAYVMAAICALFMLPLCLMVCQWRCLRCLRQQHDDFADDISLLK
In data set [2] the target is T1, Beta-secretase 1. Description: Inhibition of BACE1.
The nature of data set [3]: Apparent permeability of the compound. The settings on record: not told. Format: ADME.

For the compound `C[C@H](NC[C@H](Cc1ccccc1)NC(=O)c1cc(C(=O)N[C@H](C)c2ccc(F)cc2)cc(N(C)S(C)(=O)=O)c1)C(=O)N1CCC[C@H]1C(=O)O`, the IC50 on Beta-secretase 1 [1] was more than 20000 nM; against Beta-secretase 1 [2] it was 17200 nM.
With `CC(C)CNC(=O)[C@H](C)NC[C@H](Cc1ccccc1)NC(=O)c1cc(C(=O)N[C@H](C)c2ccc(F)cc2)cc(N(C)S(C)(=O)=O)c1`, at Beta-secretase 1 [1], the IC50 was found to be 22 nM. Besides, the Papp in data set [3] was found to be 10 ×10⁻⁶ cm/s.
With `CCC[C@H](NC[C@H](Cc1ccccc1)NC(=O)c1cc(C(=O)N[C@H](C)c2ccc(F)cc2)cc(N(C)S(C)(=O)=O)c1)C(=O)NCC(C)C`, the IC50 was 17 nM against Beta-secretase 1 [1] and 4 nM on Beta-secretase 1 [2].
For the compound `CC(C)CNC(=O)[C@H](CCS(C)(=O)=O)NC[C@H](Cc1ccccc1)NC(=O)c1cc(C(=O)N[C@H](C)c2ccc(F)cc2)cc(N(C)S(C)(=O)=O)c1`, the IC50 on Beta-secretase 1 [1] came to 17500 nM; on Beta-secretase 1 [2], 13 nM.
As for `CC(C)CNC(=O)[C@H](CCO)NC[C@H](Cc1ccccc1)NC(=O)c1cc(C(=O)N[C@H](C)c2ccc(F)cc2)cc(N(C)S(C)(=O)=O)c1`, the IC50 is 751 nM against Beta-secretase 1 [1] and 13 nM at Beta-secretase 1 [2].
The like results for `CCNC(=O)[C@H](C)NC[C@H](Cc1ccccc1)NC(=O)c1cc(C(=O)N[C@H](C)c2ccc(F)cc2)cc(N(C)S(C)(=O)=O)c1` were, in that order, 242 nM and 52 nM.
For the compound `C[C@@H](NC(=O)c1cc(C(=O)N[C@@H](Cc2ccccc2)[C@H](O)CNC2CC2)cc(N(C)S(C)(=O)=O)c1)c1ccc(F)cc1`, the Papp in data set [3] was determined as 0.6 ×10⁻⁶ cm/s.
As to `CC(C)CNC(=O)CNC[C@H](Cc1ccccc1)NC(=O)c1cc(C(=O)N[C@H](C)c2ccc(F)cc2)cc(N(C)S(C)(=O)=O)c1`, the results for the IC50 on Beta-secretase 1 [1] and at Beta-secretase 1 [2] were 3710 nM and 117 nM, respectively.
The like results for `CC[C@H](NC[C@H](Cc1ccccc1)NC(=O)c1cc(C(=O)N[C@H](C)c2ccc(F)cc2)cc(N(C)S(C)(=O)=O)c1)C(=O)NCC(C)C` were, in that order, 20 nM and 7 nM.
Compound `C[C@@H](NC(=O)c1cc(C(=O)N[C@H](CN)Cc2ccccc2)cc(N(C)S(C)(=O)=O)c1)c1ccc(F)cc1` yielded an IC50 at Beta-secretase 1 [2] of 5900 nM.
For `C[C@H](NC[C@H](Cc1ccccc1)NC(=O)c1cc(C(=O)N[C@H](C)c2ccc(F)cc2)cc(N(C)S(C)(=O)=O)c1)C(=O)NCc1ccccc1`, the values for the IC50 against Beta-secretase 1 [1] and against Beta-secretase 1 [2] were 731 nM and 139 nM, respectively.
With `C[C@H](NC[C@H](Cc1ccccc1)NC(=O)c1cc(C(=O)N[C@H](C)c2ccc(F)cc2)cc(N(C)S(C)(=O)=O)c1)C(=O)NC1CC1`, the IC50 worked out at 133 nM against Beta-secretase 1 [1] and 24 nM on Beta-secretase 1 [2].
Take `CC(C)CNC(=O)[C@H](C)NC[C@H](Cc1ccccc1)NC(=O)c1cc(CCC2C[C@@H]2C)cc(N(C)S(C)(=O)=O)c1` (stereo partly specified): the IC50 on Beta-secretase 1 [1] was determined as 23 nM; on Beta-secretase 1 [2] it was 20 nM. Also, in data set [3], the Papp is 24 ×10⁻⁶ cm/s.
With `C[C@@H](NC(=O)c1cc(C(=O)N[C@H](CO)Cc2ccccc2)cc(N(C)S(C)(=O)=O)c1)c1ccc(F)cc1`, the IC50 against Beta-secretase 1 [2] was 630 nM.
